In US8426420B2, “Heterocyclic pyrazole-carboxamidesas P2Y12 antagonists” (Sanofi, priority 2007, dated 2013):

Assays:
[1] = system: human platelet rich plasma; test: Inhibition of human platelet aggregation, 96-well assay; type: cell-based; conditions: Homo sapiens, Platelet, 20 min
In short: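 ADP-induced aggregation read as 650 nm absorbance every minute for 20 min at 37 °C, with shaking between reads. PRP (~3×E8 platelets/ml, diluted with PPP, ACD-A blood from healthy volunteers) was exposed to compound for 5 min before adding a 40 μM ADP stock (15 μl into 150 μl).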

[2] = molecular target: human P2Y12 receptor (Homo sapiens, UniProt Q9H244); test: Human P2Y12 recombinant cell membrane binding assay with 33P 2MeS-ADP; conditions: competition against 33P 2MeS-ADP, membranes of CHO cells with recombinant human P2Y12 receptor
Chain of human P2Y12 receptor (Q9H244 whole entry): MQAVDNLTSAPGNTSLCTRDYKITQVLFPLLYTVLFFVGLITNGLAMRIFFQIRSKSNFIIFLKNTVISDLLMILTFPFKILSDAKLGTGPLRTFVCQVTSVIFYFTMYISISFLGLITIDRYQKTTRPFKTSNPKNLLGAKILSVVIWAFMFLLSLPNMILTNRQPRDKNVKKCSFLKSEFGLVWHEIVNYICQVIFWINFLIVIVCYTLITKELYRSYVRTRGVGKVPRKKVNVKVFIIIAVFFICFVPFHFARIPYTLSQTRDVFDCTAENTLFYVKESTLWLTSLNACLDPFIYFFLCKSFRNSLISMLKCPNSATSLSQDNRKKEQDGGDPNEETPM
In short: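 CHO membranes expressing human P2Y12 (20 μg/ml stock) preincubated 15 min at RT with compound in HEPES pH 7.4 buffer, then 33P 2MeS-ADP (1.61 nM working solution) added for 20 min at RT. Bound label filtered and counted; four-point, five-fold series from 10 μM final, triplicate, four-parameter fit.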

| Compound | IC50 [1] | IC50 [2] |
| --- | --- | --- |
| CCOC(=O)N1CCN(C(=O)[C@H](CNC(C)=O)NC(=O)c2cc(OCC(=O)N3CCC[C@H]3C(=O)NC3CCC3)n(-c3ccccc3)n2)CC1 [Example 87, 4-[(S)-3-Acetylamino-2-({5-[2-((S)-2-cyclobutylcarbamoyl-pyrrolidin-1-yl)-2-oxo-ethoxy]-1-phenyl-1H-pyrazole-3-carbonyl}-amino)-propionyl]-piperazine-1-carboxylic acid ethyl ester] | 1130 nM | 184 nM |
| CCOC(=O)N1CCN(C(=O)[C@H](CCNC(C)=O)NC(=O)c2cc(OCC(=O)N3CCC[C@H]3C(=O)NC3CCC3)n(-c3ccccc3)n2)CC1 [Example 92, 4-[(S)-4-Acetylamino-2-({5-[2-((S)-2-cyclobutylcarbamoyl-pyrrolidin-1-yl)-2-oxo-ethoxy]-1-phenyl-1H-pyrazole-3-carbonyl}-amino)-butyryl]-piperazine-1-carboxylic acid ethyl ester] | 1130 nM | 109 nM |
| CCOC(=O)C(=O)NCC[C@H](NC(=O)c1cc(OCC(=O)N2CCC[C@H]2C(=O)NC2CCC2)n(-c2ccccc2)n1)C(=O)N1CCN(C(=O)OCC)CC1 [Example 96, 4-[(S)-2-({5-[2-((S)-2-Cyclobutylcarbamoyl-pyrrolidin-1-yl)-2-oxo-ethoxy]-1-phenyl-1H-pyrazole-3-carbonyl}-amino)-4-(ethoxyoxalyl-amino)-butyryl]-piperazine-1-carboxylic acid ethyl ester] | 670 nM | 108 nM |
| COc1cccc(N2CCN(C(=O)[C@H](CCC(=O)O)NC(=O)c3cc(OCC(=O)N4CCC[C@H]4C(=O)NC4CCC4)n(-c4ccccc4)n3)CC2)c1 [Example 101, (S)-4-({5-[2-((S)-2-Cyclobutylcarbamoyl-pyrrolidin-1-yl)-2-oxo-ethoxy]-1-phenyl-1H-pyrazole-3-carbonyl}-amino)-5-[4-(3-methoxy-phenyl)-piperazin-1-yl]-5-oxo-pentanoic acid] | 790 nM | 77 nM |
| O=C(O)CC[C@H](NC(=O)c1cc(OCC(=O)N2CCC[C@H]2C(=O)NC2CCC2)n(-c2ccccc2)n1)C(=O)N1CCC(C(=O)c2ccccc2)CC1 [Example 106, (S)-5-(4-Benzoyl-piperidin-1-yl)-4-({5-[2-((S)-2-cyclobutylcarbamoyl-pyrrolidin-1-yl)-2-oxo-ethoxy]-1-phenyl-1H-pyrazole-3-carbonyl}-amino)-5-oxo-pentanoic acid] | 1330 nM | 104 nM |

Stronger by IC50 [1], values ahead:

| IC50 [1] | IC50 [2] | Compound |
| --- | --- | --- |
| 590 nM | 108 nM | CCOC(=O)N1CCN(C(=O)[C@H](CCNC(=O)OC)NC(=O)c2cc(OCC(=O)N3CCC[C@H]3C(=O)NC3CCC3)n(-c3ccccc3)n2)CC1 [Example 93, 4-[(S)-2-({5-[2-((S)-2-Cyclobutylcarbamoyl-pyrrolidin-1-yl)-2-oxo-ethoxy]-1-phenyl-1H-pyrazole-3-carbonyl}-amino)-4-methoxycarbonylamino-butyryl]-piperazine-1-carboxylic acid ethyl ester] |
| 550 nM | 92 nM | CCOC(=O)N1CCN(C(=O)[C@H](CCC(=O)O)NC(=O)c2cc(OCC(=O)N3CCC[C@H]3C(=O)NCC3CC3)n(-c3ccc(F)c(F)c3)n2)CC1 [Example 84, 4-((S)-4-Carboxy-2-{[5-[2-((S)-2-cyclopropylmethylcarbamoyl-pyrrolidin-1-yl)-2-oxo-ethoxy]-1-(3,4-difluoro-phenyl)-1H-pyrazole-3-carbonyl]-amino}-butyryl)-piperazine-1-carboxylic acid ethyl ester] |
| 260 nM | 76 nM | CCOC(=O)N1CCN(C(=O)[C@H](CCNC(=O)C2CC2)NC(=O)c2cc(OCC(=O)N3CCC[C@H]3C(=O)NC3CCC3)n(-c3ccccc3)n2)CC1 [Example 95, 4-[(S)-2-({5-[2-((S)-2-Cyclobutylcarbamoyl-pyrrolidin-1-yl)-2-oxo-ethoxy]-1-phenyl-1H-pyrazole-3-carbonyl}-amino)-4-(cyclopropanecarbonyl-amino)-butyryl]-piperazine-1-carboxylic acid ethyl ester] |
